Experimental data reported in PubChem BioAssay (NCI).
Several values for one entry are separate records, joined by “and”; a condition that tells them apart may be missing. Identical values can stand only once.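 Results reflect a 48-hour exposure of cells in 96-well plates to compound at five concentrations. Abbreviation: GI50, concentration required for 50% inhibition of growth. The concentration for full growth arrest is given as TGI.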

Legend:
Test in all cases: DTP human tumour cell line panel, 48 h
NCI-H23 lung = system: NCI-H23 lung
UO-31 renal = system: UO-31 renal
MOLT-4 leukemia = system: MOLT-4 leukemia
UACC-257 melanoma = system: UACC-257 melanoma
CAKI-1 renal = system: CAKI-1 renal
A498 renal = system: A498 renal
RPMI-8226 leukemia = system: RPMI-8226 leukemia
TK-10 renal = system: TK-10 renal
SW-620 colon = system: SW-620 colon
MCF7 breast = system: MCF7 breast

Compound	TGI (NCI-H23 lung) [µM]	TGI (UO-31 renal) [µM]	TGI (MOLT-4 leukemia) [µM]	TGI (UACC-257 melanoma) [µM]	TGI (CAKI-1 renal)	TGI (A498 renal) [µM]	TGI (RPMI-8226 leukemia) [µM]	TGI (TK-10 renal) [µM]	TGI (SW-620 colon)	GI50 (NCI-H23 lung)	GI50 (UO-31 renal) [µM]	GI50 (MOLT-4 leukemia)	GI50 (UACC-257 melanoma)	GI50 (CAKI-1 renal)	GI50 (A498 renal) [µM]	GI50 (TK-10 renal) [µM]	GI50 (SW-620 colon)	TGI (MCF7 breast) [µM]	GI50 (RPMI-8226 leukemia) [µM]
COC(=O)c1cc2c(nc1C)-c1ccccc1OS2(=O)=O	> 100	> 100	> 100	> 100	> 100 µM	> 100	> 100	> 100	> 100 µM	–	–	–	–	–	–	–	–	–	–
COC(=O)Cc1nn2c(nc1=O)sc1ccc3ccccc3c12	> 100	> 100	> 100	> 100	> 100 µM	> 100	–	–	> 100 µM	–	–	–	–	–	–	–	–	–	–
C=C1CCC2(C(C)=O)COC1(C)O2 (stereo not drawn)	> 10	> 100	> 100	> 100	–	–	> 100	> 100	> 100 µM	–	–	–	–	–	–	–	–	–	–
COc1cc(-c2ccc(=O)oc2C#Cc2ccccc2)cc(OC)c1OC	> 100	> 100	> 100	> 100	> 100 µM	70.6	–	> 100	> 100 µM	36.9 µM	9.1	13.2 µM	56.7 µM	27.4 µM	30.4	29	13.3 µM	–	–
COc1ccc2c(c1)CC1N(C)CCC13CCCCC23 (stereo not drawn)	> 100	> 100	> 100	> 100	> 100 µM	–	> 100	> 100	–	–	–	–	–	–	–	–	–	> 100	–
O=C1CCCCCCCCCCOC(=O)CCCCCCCCCCO1	> 100	> 100	–	> 100	> 100 µM	> 100	–	> 100	> 100 µM	–	–	–	–	–	–	–	–	–	–
CN(CCCCN)c1ccc2c(=O)[nH][nH]c(=O)c2c1	5.1	> 100	> 100	> 100	> 100 µM	> 100	> 100	> 100	> 100 µM	–	–	–	–	–	–	–	–	–	–
COc1c(OC)c(OC)c(-c2cc(=O)c3c(OC)c(OC)c(OC)c(OC)c3o2)c(OC)c1OC	95.7	> 100	> 100	> 100	> 100 µM	89.1	> 100	85.3	> 100 µM	–	–	–	–	–	–	–	–	–	–
CCOC(=O)CP(=S)(S)c1ccccc1 (stereo not drawn)	> 100	> 100	> 100	> 100	> 100 µM	> 100	–	> 100	> 100 µM	–	–	–	–	–	–	–	–	–	–
C1=CC(=NN=P(c2ccccc2)(c2ccccc2)c2ccccc2)C=C1	> 100	> 100	> 100	> 100	> 100 µM	–	> 100	> 100	> 100 µM	–	–	–	–	–	–	–	–	–	–
O=Cc1cn(S(=O)(=O)c2ccccc2)c2ccccc12	85	68	53.1	> 100	–	> 100	59.3	> 100	> 100 µM	–	–	–	–	–	–	–	–	–	–
CC(O)c1ccc(C(O)/C(=N\NC(=O)c2ccncc2)c2nc3ccc([N+](=O)[O-])cc3[nH]c2=O)cc1 (stereo not drawn)	> 100	> 100	> 100	> 100	> 100 µM	–	> 100	–	> 100 µM	–	–	–	–	–	–	–	–	–	–
O=[P+](O)c1cccnc1	> 100	> 100	> 100	> 100	> 100 µM	> 100	> 100	> 100	> 100 µM	–	–	–	–	–	–	–	–	–	–
C=CNC(=S)n1nc(-c2ccccc2NC(=O)C(F)(F)F)c(=O)n(C(=S)NC=C)c1=S	> 100	73.6	> 100	–	> 100 µM	–	–	> 100	> 100 µM	–	–	–	–	–	–	–	–	–	–
C1C[S][Ge]2([S]CCS1)[S]CCSCC[S]2	> 100	> 100	> 100	–	> 100 µM	> 100	> 100	–	–	> 100 µM	> 100	> 100 µM	–	> 100 µM	> 100	–	–	–	> 100
CCCCC1N=CNc2c1ccc1c2[nH]c2ccccc21 (stereo not drawn)	11	21.9	6.51	3.3	9.16 µM	29.8	5.13	10.9	3.55 µM	–	–	–	–	–	–	–	–	–	–
C/C(CC(=O)Nc1ccc([N+](=O)[O-])cc1)=N\Nc1ccc([N+](=O)[O-])cc1[N+](=O)[O-]	> 100	> 100	> 100	> 100	–	> 100	> 100	> 100	> 100 µM	–	–	–	–	–	–	–	–	–	–
C[C@H]1CCC2C(CN3CCCCC3)C(=O)OC2[C@]2(C)C(=O)CC(N3CCCCC3)C12O (stereo partly drawn)	25.9	27.9	10.9	13.1	97.9 µM	12.8	–	34.3	10.3 µM	–	–	–	–	–	–	–	–	–	–

Compound	TGI (NCI-H23 lung) [µM]	TGI (UO-31 renal) [µM]	TGI (MOLT-4 leukemia) [µM]	TGI (UACC-257 melanoma) [µM]	TGI (CAKI-1 renal)	TGI (A498 renal) [µM]	TGI (RPMI-8226 leukemia) [µM]	TGI (TK-10 renal) [µM]	TGI (SW-620 colon)	GI50 (NCI-H23 lung)	GI50 (UO-31 renal) [µM]	GI50 (MOLT-4 leukemia)	GI50 (UACC-257 melanoma)	GI50 (CAKI-1 renal)	GI50 (A498 renal) [µM]	GI50 (TK-10 renal) [µM]	GI50 (SW-620 colon)	TGI (MCF7 breast) [µM]	GI50 (RPMI-8226 leukemia) [µM]
c1cnc2nc3n(c2c1)CSC3	> 100	> 100	> 100	> 100	> 100 µM	> 100	> 100	> 100	> 100 µM	–	–	–	–	–	–	–	–	–	–
Cn1c2c(c3ccccc31)CCN(CCCN1CCN(c3ccccc3)CC1)C2=O	46.8	30.3	36.7	–	30.8 µM	32.8	36.7	35.4	55.7 µM	–	–	–	–	–	–	–	–	–	–
O=C(O)CCCc1cc2c(s1)-c1cccc3cccc-2c13	41.2	43.4	60.8	53.9	> 100 µM	–	72.5	> 100	> 100 µM	–	–	–	–	–	–	–	–	–	–
Cc1cc(N(CCC#N)CCC#N)ccc1CC1N=C(c2ccccc2)OC1=O (stereo not drawn)	> 100	> 100	> 100	> 100	> 100 µM	> 100	> 100	> 100	> 100 µM	–	–	–	–	–	–	–	–	–	–
O=c1[nH]c(-c2ccc([N+](=O)[O-])cc2)nc2ccc(Cl)cc12	> 100	> 100	> 100	> 100	–	–	> 100	> 100	> 100 µM	–	–	–	–	–	–	–	–	–	–
C/C(CC(=O)Nc1cccc(C)c1C)=N\NC(N)=S	> 100	> 100	> 100	> 100	> 100 µM	> 100	> 100	> 100	–	–	–	–	–	–	–	–	–	–	–
COC(=O)C1=Cc2cn(S(=O)(=O)c3ccc(C)cc3)c3cccc(c23)C(C=C(C)C)N1C(C)=O (stereo not drawn)	> 100	> 100	44.9	> 100	79.6 µM	> 100	–	> 100	> 100 µM	–	–	–	–	–	–	–	–	–	–
O=c1sc(-c2nc3ccccc3[nH]2)c(/N=C/c2ccccc2)n1-c1ccccc1	> 100	> 100	> 100	> 100	> 100 µM	> 100	> 100	> 100	> 100 µM	–	–	–	–	–	–	–	–	–	–
[Au+].c1c[n-]cn1.c1ccc([PH+](c2ccccc2)c2ccccc2)cc1	25.1	19.4	5.15	15.8	16.4 µM	34.9	> 90.8	6.46	3.28 µM	5.85 µM	8.36	2.07 µM	5.04 µM	4.69 µM	17.4	2.66	1.81 µM	–	8.93
c1ccc(N2N=NC3C4CC(C5c6ccccc6C45)C32)cc1 (stereo not drawn)	75.9	72.1	73.4	76.4	> 100 µM	> 100	> 100	> 100	> 100 µM	–	–	–	–	–	–	–	–	–	–
Cc1cc(C)c(C2=NO[C@@H]3C(=O)N(c4ccc(Cc5ccc(N6C(=O)[C@H]7C(c8c(C)cc(C)cc8C)=NO[C@H]7C6=O)cc5)cc4)C(=O)[C@H]23)c(C)c1	> 100	> 100	> 100	> 100	> 100 µM	> 100	> 100	> 100	> 100 µM	–	–	–	–	–	–	–	–	–	–
O=C(O)c1ccccc1C1c2ccc(Cl)cc2Oc2cc(Cl)ccc21	> 100	> 100	> 100	> 100	> 100 µM	–	> 100	> 100	> 100 µM	–	–	–	–	–	–	–	–	–	–
CN(CC1NCCCC1O)C12CC3CC(CC(C3)C1)C2 (stereo not drawn)	> 100	> 100	> 100	> 100	> 100 µM	> 100	> 100	> 100	> 100 µM	–	–	–	–	–	–	–	–	–	–
COc1cc(=O)oc(/C=C/CO)c1C	> 100	> 100	> 100	> 100	> 100 µM	> 100	–	> 100	> 100 µM	–	–	–	–	–	–	–	–	–	–
CCOC(=O)Cn1c(=O)[nH]c(=O)c2[nH]cnc21	> 100	> 100	> 100	> 100	–	> 100	–	> 100	> 100 µM	–	–	–	–	–	–	–	–	–	–
C=CCn1c(=O)c(C(=O)NC(=O)OCC)cn(C2CCCCC2)c1=O	> 100	> 100	> 100	> 100	> 100 µM	> 100	> 100	> 100	> 100 µM	–	–	–	–	–	–	–	–	–	–
COC1C(C)OC(OC2CC(C)(O)Cc3cc4c(c(O)c32)C(=O)c2c(O)cc3c(c2C4=O)OC2OC3(C)C(O)C(N(C)C)C2O)C(OC)C1(C)OC (stereo not drawn)	–	–	–	–	0.422 µM and 0.452 µM	–	–	0.781	2.84 µM and 2.41 µM	0.0395 µM and 0.0216 µM	–	0.0366 µM and 0.02 µM	0.0784 µM and 0.0388 µM	0.0476 µM and 0.0219 µM	–	0.109	0.038 µM and 0.024 µM	0.413	–
